The structures appear in SMILES notation. Several values for one entry are separate records, joined by “and”; a condition that tells them apart may be missing. Identical values can stand only once.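 Five compound concentrations were applied to cells in 96-well plates for 48 hours; endpoints were derived by simple linear interpolation of the resulting dose-response curve. The concentration for 50% growth inhibition is given as GI50. TGI marks complete inhibition of growth.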 Where only a bound is given, the exact number is not on record here.

Among the test systems are CCRF-CEM leukemia; HOP-92 NSCLC; SK-OV-3 ovarian; MOLT-4 leukemia; A549 NSCLC; DU-145 prostate; HOP-62 NSCLC; SW-620 colon; PC-3 prostate; RXF 393 renal.
Common to all, as to test: growth of human tumour cells (NCI), 48 h

Consider `Cc1cc(S(N)(=O)=O)c(S/C(=N\Nc2ccc([N+](=O)[O-])cc2)c2ccc3ccccc3c2)cc1Cl`, for which the GI50 in the test on CCRF-CEM leukemia was 50400 nM; in the test on HOP-92 NSCLC, 1320 nM; in the test on SK-OV-3 ovarian, 20400 nM; in the test with MOLT-4 leukemia, 73900 nM; in the test with A549 NSCLC it was 54100 nM; with DU-145 prostate, 13200 nM. Further, the GI50 with HOP-62 NSCLC is 22800 nM; in the test on SW-620 colon, 33400 nM; with PC-3 prostate, 14200 nM; in the test with RXF 393 renal it was 8690 nM. Besides, the TGI with CCRF-CEM leukemia was greater than 100000 nM; with HOP-92 NSCLC, 19600 nM; in the test with SK-OV-3 ovarian, 55800 nM; in the test with MOLT-4 leukemia, greater than 100000 nM; with A549 NSCLC, greater than 100000 nM; in the test on DU-145 prostate it was 43000 nM. For the same compound, the TGI was 68500 nM in the test with HOP-62 NSCLC, greater than 100000 nM in the test on SW-620 colon, 27400 nM with PC-3 prostate and 54800 nM in the test on RXF 393 renal.

`COc1ccc(Oc2cc(NCCC(F)(F)F)c3ncc(-c4ccc(C(=O)NC5CC5)c(C)c4)n3n2)c(F)c1F`: the TGI in the test with CCRF-CEM leukemia was greater than 100000 nM; in the test with HOP-92 NSCLC it was 39300 nM; with SK-OV-3 ovarian, 27200 nM; with MOLT-4 leukemia, greater than 100000 nM; with A549 NSCLC it was greater than 59200 nM; in the test with DU-145 prostate it was greater than 100000 nM. Besides, the TGI was 37000 nM in the test on HOP-62 NSCLC, greater than 100000 nM with SW-620 colon, greater than 78500 nM in the test on PC-3 prostate and 31900 nM in the test on RXF 393 renal. Moreover, the GI50 in the test with HOP-92 NSCLC is 4540 nM; with SK-OV-3 ovarian it was 399 nM; in the test on MOLT-4 leukemia it was 2030 nM; in the test with A549 NSCLC it was 902 nM; with DU-145 prostate it was 423 nM; with HOP-62 NSCLC, 2020 nM. Also, the GI50 with SW-620 colon is 125 nM; in the test with PC-3 prostate, 2160 nM; in the test with RXF 393 renal it was 425 nM.

Turning to `COC(=O)[C@@H](OC)[C@@H]1Cc2cc3cc(OC4CC(OC5CC(O)C(O)C(C)O5)C(O)C(C)O4)c(C)c(O)c3c(O)c2C(=O)[C@H]1OC1CC(OC2CC(OC3CC(C)(O)C(O)C(C)O3)C(O)C(C)O2)C(O)C(C)O1` (some centres not stated), the GI50 is 35 nM in the test on CCRF-CEM leukemia; 36.5 nM with HOP-92 NSCLC; 81.1 nM with SK-OV-3 ovarian; 45.3 nM with MOLT-4 leukemia; 48.4 nM in the test on A549 NSCLC; 43.3 nM in the test on DU-145 prostate. Also, the GI50 in the test on HOP-62 NSCLC was 31.2 nM; in the test on SW-620 colon, 40 nM; in the test with PC-3 prostate, 42.9 nM; in the test on RXF 393 renal it was 26.3 nM. Besides, the TGI was greater than 7400 nM with CCRF-CEM leukemia; 119 nM with HOP-92 NSCLC; greater than 16500 nM with SK-OV-3 ovarian; greater than 16500 nM with A549 NSCLC; greater than 16500 nM with DU-145 prostate; 1800 nM in the test with HOP-62 NSCLC. Also, the TGI in the test with SW-620 colon is greater than 16500 nM; with PC-3 prostate, 188 nM; in the test on RXF 393 renal, 62.3 nM.

For `Cc1ccc(C)c2c(N=Nc3ccccc3[N+](=O)[O-])c(O)[nH]c12`, the TGI with CCRF-CEM leukemia, in the test on HOP-92 NSCLC, with SK-OV-3 ovarian, in the test on MOLT-4 leukemia, in the test with A549 NSCLC and in the test on DU-145 prostate was greater than 100000 nM throughout. In addition, the TGI in the test on HOP-62 NSCLC, with SW-620 colon, in the test on PC-3 prostate and with RXF 393 renal was greater than 100000 nM in each case.

Turning to `Cc1ncc(-c2ccnc(Nc3ccc(S(C)(=O)=O)cc3)n2)n1C(C)C`, the GI50 with CCRF-CEM leukemia was 987 nM; in the test on HOP-92 NSCLC, 926 nM; with SK-OV-3 ovarian, 4160 nM; in the test on MOLT-4 leukemia, 1030 nM; in the test on A549 NSCLC, 1340 nM; in the test with DU-145 prostate, 1320 nM. For the same compound, the GI50 with HOP-62 NSCLC is 1360 nM; in the test with SW-620 colon it was 1020 nM; in the test on PC-3 prostate it was 1300 nM; in the test on RXF 393 renal, 211 nM. In addition, the TGI in the test with CCRF-CEM leukemia was greater than 7120 nM; with HOP-92 NSCLC, 6160 nM; in the test on SK-OV-3 ovarian it was greater than 10000 nM; in the test on MOLT-4 leukemia, 4990 nM; in the test on A549 NSCLC, greater than 10000 nM; with DU-145 prostate, greater than 10000 nM. Further, the TGI in the test with HOP-62 NSCLC is greater than 10000 nM; with SW-620 colon, greater than 10000 nM; with PC-3 prostate, 7200 nM; with RXF 393 renal it was 678 nM.

In the case of `O=C1N[C@H]2[C@H](O)[C@H](O)[C@@H](O)[C@H](O)[C@@H]2c2cc3c(c(O)c21)OCO3`, the GI50 is 137 nM with CCRF-CEM leukemia; 333 nM with HOP-92 NSCLC; 300 nM and 330 nM in the test on SK-OV-3 ovarian; 196 nM and 575 nM with MOLT-4 leukemia; 407 nM and 3510 nM with A549 NSCLC; 10.1 nM with DU-145 prostate. The GI50 with HOP-62 NSCLC was 246 nM and 93.5 nM; in the test with SW-620 colon, 239 nM and 250 nM; in the test with PC-3 prostate, 38.1 nM and 66.1 nM; with RXF 393 renal, 148 nM and 423 nM. In addition, the TGI in the test on CCRF-CEM leukemia was 767 nM and 485 nM; in the test on DU-145 prostate, 96.3 nM and 102 nM; in the test on HOP-62 NSCLC, 930 nM and 532 nM and 182 nM; with PC-3 prostate, 787 nM and 480 nM.

As to `CN(C)c1ccc(C(=C2C=CC(=[N+](C)C)C=C2)c2ccccc2Cl)cc1`, the GI50 is 402 nM in the test on CCRF-CEM leukemia; 302 nM in the test with HOP-92 NSCLC; 314 nM in the test on SK-OV-3 ovarian; 593 nM in the test on MOLT-4 leukemia; 248 nM in the test on A549 NSCLC; 374 nM with DU-145 prostate. The GI50 is 292 nM in the test on HOP-62 NSCLC, 288 nM with SW-620 colon, 242 nM in the test with PC-3 prostate and 405 nM in the test with RXF 393 renal. Besides, the TGI stood at 5060 nM in the test on CCRF-CEM leukemia; 1350 nM in the test with HOP-92 NSCLC; 992 nM with SK-OV-3 ovarian; 12900 nM in the test on MOLT-4 leukemia; 4240 nM in the test on A549 NSCLC; 1310 nM with DU-145 prostate. Besides, the TGI came out at 949 nM in the test on HOP-62 NSCLC, 1190 nM with SW-620 colon, 995 nM in the test with PC-3 prostate and 1610 nM with RXF 393 renal.

With `Cc1cc2c(cc1C)[n+](Cc1ccc3ccccc3n1)cn2Cc1ccc2ccccc2n1`, the GI50 in the test on CCRF-CEM leukemia was 1830 nM; in the test on HOP-92 NSCLC it was 484 nM; with SK-OV-3 ovarian it was 1690 nM; in the test with MOLT-4 leukemia, 1460 nM; with A549 NSCLC it was 2830 nM; with DU-145 prostate, 1600 nM. The GI50 is 1270 nM in the test on HOP-62 NSCLC, 1070 nM in the test on SW-620 colon, 948 nM in the test on PC-3 prostate and 1170 nM with RXF 393 renal. The TGI in the test with CCRF-CEM leukemia was determined as 12800 nM; in the test with HOP-92 NSCLC it was 2000 nM; in the test with SK-OV-3 ovarian it was 4130 nM; with MOLT-4 leukemia, 5150 nM; in the test on A549 NSCLC it was 13000 nM; in the test on DU-145 prostate, 6560 nM. Also, the TGI is 3130 nM with HOP-62 NSCLC, 2920 nM with SW-620 colon, 2980 nM in the test on PC-3 prostate and 2450 nM with RXF 393 renal.

These data come from PubChem BioAssay (NCI).
